In this test the target is T1, recombinant full length LRRK2 protein over-expressed in SH-SY5Y cells (Homo sapiens, UniProt Q5S007).
T1 construct: engineered to over-express recombinant full length LRRK2 protein; host or cells: SH-SY5Y human neuroblastoma cells transduced with BacMam LRRK2 virus
T1 sequence (Q5S007 whole entry): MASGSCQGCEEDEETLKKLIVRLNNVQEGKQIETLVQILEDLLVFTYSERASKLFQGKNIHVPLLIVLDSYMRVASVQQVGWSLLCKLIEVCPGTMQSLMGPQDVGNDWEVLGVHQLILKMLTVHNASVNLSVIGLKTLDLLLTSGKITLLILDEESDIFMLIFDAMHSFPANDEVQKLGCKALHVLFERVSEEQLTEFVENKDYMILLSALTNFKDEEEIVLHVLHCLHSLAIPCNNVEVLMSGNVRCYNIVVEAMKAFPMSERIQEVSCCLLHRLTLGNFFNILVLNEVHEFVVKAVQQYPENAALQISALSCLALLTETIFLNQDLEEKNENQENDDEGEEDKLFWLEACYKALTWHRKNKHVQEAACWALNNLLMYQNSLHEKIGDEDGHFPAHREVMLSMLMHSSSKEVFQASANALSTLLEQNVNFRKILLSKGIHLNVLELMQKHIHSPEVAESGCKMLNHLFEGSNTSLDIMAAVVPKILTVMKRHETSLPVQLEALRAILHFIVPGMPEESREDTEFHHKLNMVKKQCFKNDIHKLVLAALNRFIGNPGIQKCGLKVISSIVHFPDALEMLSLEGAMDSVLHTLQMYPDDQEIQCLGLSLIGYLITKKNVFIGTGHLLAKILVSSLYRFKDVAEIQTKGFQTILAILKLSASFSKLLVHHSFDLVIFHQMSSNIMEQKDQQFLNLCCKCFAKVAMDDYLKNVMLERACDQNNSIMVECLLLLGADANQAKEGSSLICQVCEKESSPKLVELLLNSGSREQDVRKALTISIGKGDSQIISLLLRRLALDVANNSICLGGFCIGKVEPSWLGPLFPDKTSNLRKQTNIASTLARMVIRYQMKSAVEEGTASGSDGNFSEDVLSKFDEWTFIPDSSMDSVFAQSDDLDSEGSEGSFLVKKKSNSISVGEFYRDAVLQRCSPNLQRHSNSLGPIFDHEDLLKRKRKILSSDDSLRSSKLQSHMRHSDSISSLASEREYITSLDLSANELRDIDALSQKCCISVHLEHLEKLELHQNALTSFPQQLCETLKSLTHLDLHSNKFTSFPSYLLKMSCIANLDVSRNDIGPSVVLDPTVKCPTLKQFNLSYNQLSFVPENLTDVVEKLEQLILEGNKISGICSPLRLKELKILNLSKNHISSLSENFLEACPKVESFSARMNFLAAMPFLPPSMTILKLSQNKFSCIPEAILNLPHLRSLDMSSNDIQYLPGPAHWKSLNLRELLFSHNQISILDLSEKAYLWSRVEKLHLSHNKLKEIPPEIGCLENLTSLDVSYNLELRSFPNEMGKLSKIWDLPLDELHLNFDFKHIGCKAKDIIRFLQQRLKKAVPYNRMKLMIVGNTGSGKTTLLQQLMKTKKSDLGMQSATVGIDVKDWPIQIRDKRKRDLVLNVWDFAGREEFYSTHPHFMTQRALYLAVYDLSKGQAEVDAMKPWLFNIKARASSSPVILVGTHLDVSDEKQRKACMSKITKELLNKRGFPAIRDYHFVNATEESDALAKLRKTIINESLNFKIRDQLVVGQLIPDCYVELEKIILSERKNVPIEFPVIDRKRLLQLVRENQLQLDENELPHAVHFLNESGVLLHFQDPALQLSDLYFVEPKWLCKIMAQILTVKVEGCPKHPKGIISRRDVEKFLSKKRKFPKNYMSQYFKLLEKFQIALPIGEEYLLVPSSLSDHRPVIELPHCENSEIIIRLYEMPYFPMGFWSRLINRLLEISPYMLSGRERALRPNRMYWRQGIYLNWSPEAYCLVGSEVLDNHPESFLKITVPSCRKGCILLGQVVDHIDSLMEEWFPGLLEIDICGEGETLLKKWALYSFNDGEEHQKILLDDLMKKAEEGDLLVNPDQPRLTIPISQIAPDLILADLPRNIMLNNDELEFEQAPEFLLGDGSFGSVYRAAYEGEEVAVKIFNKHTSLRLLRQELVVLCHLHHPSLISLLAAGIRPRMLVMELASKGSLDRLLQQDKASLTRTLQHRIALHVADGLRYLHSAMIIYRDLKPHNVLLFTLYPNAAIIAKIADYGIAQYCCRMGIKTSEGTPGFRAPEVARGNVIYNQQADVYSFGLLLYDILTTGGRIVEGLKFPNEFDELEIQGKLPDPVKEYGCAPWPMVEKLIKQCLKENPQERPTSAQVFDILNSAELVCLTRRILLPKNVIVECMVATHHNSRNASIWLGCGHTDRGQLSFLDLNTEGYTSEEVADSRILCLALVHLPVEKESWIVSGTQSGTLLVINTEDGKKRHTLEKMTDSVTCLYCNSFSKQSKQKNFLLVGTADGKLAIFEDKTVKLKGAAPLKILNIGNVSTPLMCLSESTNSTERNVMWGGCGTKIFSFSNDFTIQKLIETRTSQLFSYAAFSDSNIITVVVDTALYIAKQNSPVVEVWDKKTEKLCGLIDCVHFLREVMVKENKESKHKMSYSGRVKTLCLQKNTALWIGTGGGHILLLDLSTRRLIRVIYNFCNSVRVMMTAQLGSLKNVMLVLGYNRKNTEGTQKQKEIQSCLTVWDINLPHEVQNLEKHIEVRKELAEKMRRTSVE
Kind of test: Recombinant cellular LRRK2 AlphaScreen assay (LRRK2 Ser935 phosphorylation). It is filed as cell-based. As to conditions: human neuroblastoma SH-SY5Y cells over-expressing recombinant full length LRRK2, 60 minutes compound incubation, read-out: pIC50 in the recombinant cellular LRRK2 AlphaScreen assay (converted). The source says: b. Recombinant Cellular LRRK2 AlphaScreen Assay
To determine the activity of compounds against LRRK2 kinase activity in cells, the observed LRRK2 kinase-dependent modulation of LRRK2 Ser 935 phosphorylation (Dzamko et al., 2010, Biochem. J. 430: 405-413) was utilized to develop a quantitative 384 well plate-based immunoassay of LRRK2 Ser935 phosphorylation in the human neuroblastoma cell line SH-SY5Y, engineered to over-express recombinant full length LRRK2 protein.
A BacMam virus expressing full length recombinant LRRK2 was purchased from Invitrogen and amplified by inoculation of SF-9 cells at MOI 0.3 for 4-5 days in Sf-900 III SFM medium supplemented with 3% fetal bovine serum. Infected cell cultures were then centrifuged at 2000 g for 20 minutes, viral supernatant titer determined by anti-gp64 plaque assay and stored at 4° C.
Affinity-purified anti-phospho LRRK2 Ser935 sheep polyclonal antibody (Dzamko et al., 2010, Biochem. J. 430: 405-413) was biotinylated by standard methods (PerkinElmer). Anti-LRRK2 rabbit polyclonal antibody was purchased from Novus Biologicals. AlphaScreen Protein A IgG Kit (including acceptor and donor beads) was purchased from Perkin Elmer. […]
Serial dilutions of test compounds were prepared in Opti-MEM reduced serum media (Invitrogen) and 5.6 ul transferred from compound plate to cell assay plate to achieve a top final assay concentration of 10 uM. […] 10 ul of antibody/acceptor bead mix [(1/1000 biotinylated-pS935 LRRK2 antibody, 1/1000 total-LRRK2 antibody, 1/100 Acceptor beads in AlphaScreen detection buffer (25 mM Hepes (pH 7.4), 0.5% Triton X-100, 1 mg/ml Dextran 500 and 0.1% BSA)] was then added to each well and plates incubated for 2 hours at ambient temperature in the dark. 10 μl of donor beads solution (1/33.3 donor beads in AlphaScreen detection buffer) was then added to each well. Following incubation for a further 2 hours at ambient temperature in the dark, plates were read on an EnVision™ plate reader at emission 520-620 nm with excitation 680 nm. […]
(In Alpha technology, singlet oxygen from a donor bead excites a nearby acceptor bead.)
`Cc1nc(N2CCO[C@@H](CO)C2)cc(-n2ncc3cc(C)c(C4CCN(CC(C)O)CC4F)cc32)n1` (single isomer, unassigned) [Example E29]: the IC50 is 6.31 nM.

`COc1nc(N2CC(O)C2)cc(-n2ncc3cc(C)c(C4CCN(CCS(C)(=O)=O)CC4)cc32)n1` [Example E42, 1-(2-methoxy-6-(5-methyl-6-(1-(2-(methylsulfonyl)ethyl)piperidin-4-yl)-1H-indazol-1-yl)pyrimidin-4-yl)azetidin-3-ol]: the IC50 is 2 nM.

Regarding `COc1nc(N2CCOCC2)cc(-n2ncc3cc(C)c(C4CCN(CCO)CC4F)cc32)n1` (single isomer, unassigned) [Example E1, 2-(3-fluoro-4-(1-(2-methoxy-6-morpholinopyrimidin-4-yl)-5-methyl-1H-indazol-6-yl)piperidin-1-yl)ethanol], the IC50 was 5.01 nM.

The record behind these values is patent US20200002323A1, “COMPOUNDS” (GLAXOSMITHKLINE INTELLECTUAL PROPERTY DEVELOPMENT LIMITED, priority 2017, published 2020).
